From patent US12103939B2, “Solid pharmaceutical gold-based composition” (KING FAHD UNIVERSITY OF PETROLEUM AND MINERALS, priority 2019, dated 2024)

Assays:
PC3 cells [1] = assay: Reactive oxygen species production (H2DCFDA); assay type: cell-based, human; settings: PC3, C6 at IC50 and IC75, 24 h
Protocol: The production of reactive oxygen species (ROS) was evaluated using 2′,7′-dichlorodihydrofluorescein diacetate (H2DCFDA) (H2-DCF, DCF) (Invitrogen). Cells were pretreated with the antioxidant N-acetyl-L-cysteine (NAC; 5 mM) (Sigma) for 30 min before C6 was added. After 24 h of C6 treatment, cells were harvested and viable cells were counted by trypan blue dye exclusion. Then cells were washed, stained with 1 μM H2DCFDA for 30 min at 37° C., and finally ROS production was analyzed by flow cytometry.

PC3 cells [2] = assay: Double-stranded DNA breaks (histone H2A.X phosphorylation); assay type: cell-based, human; settings: PC3, 24 h
Protocol: The presence of double-stranded DNA breaks was assessed 24 h after treatment with C6 by fixing and permeabilizing cells with Fix & Perm medium A and B (Invitrogen) and staining with FITC anti-H2A.X Phospho (Ser139) Antibody (BioLegend, San Diego, USA). Stained cells were evaluated by flow cytometry.

[3] = test system: normal human adipose-derived stromal cells (ADSCs); assay: Growth inhibition in adipose-derived stromal cells (MTT, 72 h); assay type: cell-based; settings: MTT after 72 h
Protocol: Human adipose-derived stromal cells (ADSCs) were from Lonza (Verviers, Belgium). ADSCs were maintained in MSGM bullet kit (Lonza) and experiments were performed in DMEM (Cambrex Bio Science, Milan, Italy) supplemented with 10% FBS. To evaluate effects of C6, ADSCs were seeded in 96-well flat-bottomed microplates (5.0×10^3 cells in 100 μL per well) and incubated for 24 h (to allow cell adhesion) before drug testing. The medium was removed and replaced with fresh medium containing C6 at increasing concentrations (from 0.1 to 1 μM). Cells were incubated at 37° ° C. for 72 h. Each treatment was performed in triplicate. Cell growth was measured using the MTT assay.

[4] = test system: thioredoxin reductase (TrxR); assay: Thioredoxin reductase activity in lysates of treated PC3 cells; settings: PC3, C6 at IC25, IC50, IC75, 12 h
Protocol: All experimental conditions were tested in triplicate and experiments were done three times to calculate means and SD.
Thioredoxin reductase (TrxR) (EC 1.8.1.9) was assayed using the Thioredoxin Reductase Assay Kit (Sigma-Aldrich). […] Enzyme activity was determined reading absorbance at 412 nm using a spectrophotometer (Biomate 3 Thermo Spectronic). The enzymatic activity was normalized to the protein concentration, determined using the Bio-Rad protein assay (Protein Assay Dye Reagent Concentrate, Bio-Rad Laboratories), and expressed as percentage of control (no C6).

Structure (SMILES): C[N+](C)=C1[S][Au-]2([S]1)[n+]1ccc[n+]3c1-c1[n+]2ccc[n+]1[Au-]31[S]C(=[N+](C)C)[S]1.[Cl-].[Cl-].[Cl-].[Cl-] [C6, [Au2(BPM)(DMDTC)2]Cl4]
- ROS production (PC3 cells [1]): induced ROS production in a dose-dependent manner
- double-stranded DNA breaks (phosphorylation of histone H2A.X) (PC3 cells [2]): increase in phosphorylation of histone H2A.X
- IC50 [3]: 1400 nM
- TrxR enzymatic activity [4]: dose-dependent decrease of its enzymatic activity
